According to patent US9938258B2 (Karyopharm Therapeutics Inc., priority 2012, dated 2018):
Where two headings read alike, the source gives them in different places.

Experiments:
MS751 cells = assay: MTT cell proliferation assay, MS751; type: cell-based, human; conditions: eight concentrations 1 nM to 30 μM, incubation approximately 64-72 hours, read-out: MTT Assay IC50, MS751
Experimental: (§1) The MTT cell proliferation assay was used to study the cytotoxic properties of the compounds. The assay was performed according to the method described by Roche Molecular Biochemicals, with minor modifications. The assay is based on the cleavage of the tetrazolium salt, MTT, in the presence of an electron-coupling reagent. The water-insoluble formazan salt produced must be solubilized in an additional step. Cells grown in a 96-well tissue culture plate were incubated with the MTT solution for approximately 4 hours. After this incubation period, a water-insoluble formazan dye formed. After solubilization, the formazan dye was quantitated using a scanning multi-well spectrophotometer (ELISA reader). […] The cells were seeded at 5,000-10,000 cells in each well of 96-well plate in 100 μL of fresh culture medium and were allowed to attach overnight. The stock solutions of the compounds were diluted in 100 μL cell culture medium to obtain eight concentrations of each test compound, ranging from 1 nM to 30 μM. […] All optical densities were measured at 490 nm using a Vmax Kinetic Microplate Reader (Molecular Devices). In most cases, the assay was performed in duplicate and the results were presented as a mean percent inhibition to the negative control±SE. The following formula was used to calculate the percent of inhibition: Inhibition (%)=(1-(ODo/OD)) ×100.
(§2) The compounds were tested against MS751, Z138 and 3T3 cells. The MS751 cell line is derived from a metastasis to lymph node of human cervix from a patient diagnosed with squameous cell carcinoma of the cervix. The Z138 cell line is a mature B-cell acute lymphoblastic leukemia cell line derived from a patient with chronic lumphocytic leukemia. 3T3 cells are standard fibroblast cells; they were originally isolated from Swiss mouse embryo tissue.

3T3 cells = assay: MTT cell proliferation assay, 3T3; type: cell-based, mouse; conditions: eight concentrations 1 nM to 30 μM, incubation approximately 64-72 hours, read-out: MTT Assay IC50, 3T3
Experimental: as §1, §2

Z138 cells = assay: MTT cell proliferation assay, Z138; type: cell-based; conditions: eight concentrations 1 nM to 30 μM, incubation approximately 64-72 hours, read-out: MTT Assay IC50, Z138
Experimental: as §1, §2

[1] = Homo sapiens, MS751, MS751 cells
[2] = Mus musculus, NIH3T3, 3T3 cells
[3] = Homo sapiens, Z-138, Z138 cells

| SMILES | IC50 (MS751 cells; [1]) [µM] | IC50 (3T3 cells; [2]) [µM] | IC50 (Z138 cells; [3]) [µM] | IC50 (MS751 cells; MS751 cells) [µM] | IC50 (3T3 cells; 3T3 cells) [µM] | IC50 (Z138 cells; Z138 cells) [µM] |
| --- | --- | --- | --- | --- | --- | --- |
| COc1ccc(F)cc1-c1cc(Cl)c2c(c1)CC(CNC(=O)/C=C/c1cccnc1)O2 (stereo not drawn) [Compound 61, (E)-N-((7-chloro-5-(5-fluoro-2-methoxyphenyl)-2,3-dihydrobenzofuran-2-yl)methyl)-3-(pyridin-3-yl)acrylamide] | 0.1 to 5 | 0.1 to 5 | 0.1 to 5 |  |  |  |
| CN(C)c1ccc(-c2cc(Cl)c3c(c2)CC(CNC(=O)/C=C/c2cccnc2)O3)cc1 (stereo not drawn) [Compound 64, (E)-N-((7-chloro-5-(4-(dimethylamino)phenyl)-2,3-dihydrobenzofuran-2-yl)methyl)-3-(pyridin-3-yl)acrylamide] | 0.1 to 5 | 0.1 to 5 | < 0.1 |  |  |  |
| O=C(/C=C/c1cccnc1)NCC1Cc2cc(-c3ccccc3)cc(Cl)c2O1 (stereo not drawn) [Compound 67, (E)-N-((7-chloro-5-phenyl-2,3-dihydrobenzofuran-2-yl)methyl)-3-(pyridin-3-yl)acrylamide] | 0.1 to 5 | 5 to 30 | 0.1 to 5 |  |  |  |
| O=C(/C=C/c1cccnc1)NCC1Cc2cc(-c3cccnc3)cc(Cl)c2O1 (stereo not drawn) [Compound 70, (E)-N-((7-chloro-5-(pyridin-3-yl)-2,3-dihydrobenzofuran-2-yl)methyl)-3-(pyridin-3-yl)acrylamide] | 0.1 to 5 | 5 to 30 | 0.1 to 5 |  |  |  |
| O=C(/C=C/c1cccnc1)NCC1Cc2cc(-c3cccc(F)c3F)cc(Cl)c2O1 (stereo not drawn) [Compound 73, (E)-N-((7-chloro-5-(2,3-difluorophenyl)-2,3-dihydrobenzofuran-2-yl)methyl)-3-(pyridin-3-yl)acrylamide] | 0.1 to 5 | 5 to 30 | 0.1 to 5 |  |  |  |
| O=C(/C=C/c1cccnc1)NCC1Cc2cc(-c3cccc(C(=O)O)c3)cc(Cl)c2O1 (stereo not drawn) [Compound 76, (E)-3-(7-chloro-2-((3-(pyridin-3-yl)acrylamido)methyl)-2,3-dihydrobenzofuran-5-yl)benzoic acid] | 5 to 30 | 5 to 30 | 5 to 30 |  |  |  |
| CS(=O)(=O)c1cncc(-c2cc(Cl)c3c(c2)CC(CNC(=O)/C=C/c2cccnc2)O3)c1 (stereo not drawn) [Compound 77, (E)-N-((7-chloro-5-(5-(methylsulfonyl)pyridin-3-yl)-2,3-dihydrobenzofuran-2-yl)methyl)-3-(pyridin-3-yl)acrylamide] | 0.1 to 5 | 0.1 to 5 | 0.1 to 5 |  |  |  |
| CS(=O)(=O)c1cccc(-c2cc(Cl)c3c(c2)CC(CNC(=O)/C=C/c2cccnc2)O3)c1 (stereo not drawn) [Compound 80, (E)-N-((7-chloro-5-(3-(methylsulfonyl)phenyl)-2,3-dihydrobenzofuran-2-yl)methyl)-3-(pyridin-3-yl)acrylamide] | 0.1 to 5 | 0.1 to 5 | 0.1 to 5 |  |  |  |
| O=C(/C=C/c1cccnc1)NCC1Cc2cccc(Cl)c2O1 (stereo not drawn) [Compound 83, (E)-N-((7-chloro-2,3-dihydrobenzofuran-2-yl)methyl)-3-(pyridin-3-yl)acrylamide] | 5 to 30 | > 30 | 5 to 30 |  |  |  |
| Nc1ccccc1-c1cc(Cl)c2c(c1)CC(CNC(=O)/C=C/c1cccnc1)O2 (stereo not drawn) [Compound 84, (E)-N-((5-(2-aminophenyl)-7-chloro-2,3-dihydrobenzofuran-2-yl)methyl)-3-(pyridin-3-yl)acrylamide] | 0.1 to 5 | 5 to 30 | 0.1 to 5 |  |  |  |
| CC(=O)c1ccc(-c2cc(F)c3c(c2)CC(CNC(=O)/C=C/c2cccnc2)O3)s1 (stereo not drawn) [Compound 87, (E)-N-((5-(5-acetylthiophen-2-yl)-7-fluoro-2,3-dihydrobenzofuran-2-yl)methyl)-3-(pyridin-3-yl)acrylamide] | 0.1 to 5 | 0.1 to 5 | 0.1 to 5 |  |  |  |
| CC(=O)c1ccc(-c2cc(Cl)c3c(c2)CC(CNC(=O)/C=C/c2cccnc2)O3)o1 (stereo not drawn) [Compound 99, (E)-N-((5-(5-acetylfuran-2-yl)-7-chloro-2,3-dihydrobenzofuran-2-yl)methyl)-3-(pyridin-3-yl)acrylamide] | < 0.1 | 0.1 to 5 | < 0.1 |  |  |  |
| CC(=O)c1ccc(-c2cc(Cl)c3c(c2)CC(CNC(=O)/C=C/c2ccccn2)O3)s1 (stereo not drawn) [Compound 103, (E)-N-((5-(5-acetylthiophen-2-yl)-7-chloro-2,3-dihydrobenzofuran-2-yl)methyl)-3-(pyridin-2-yl)acrylamide] | > 30 | > 30 | > 30 |  |  |  |
| CC(=O)c1ccc(-c2cc(Cl)c3c(c2)CC(CNC(=O)/C=C/c2cnc(N)nc2)O3)s1 (stereo not drawn) [Compound 104, (E)-N-((5-(5-acetylthiophen-2-yl)-7-chloro-2,3-dihydrobenzofuran-2-yl)methyl)-3-(2-aminopyrimidin-5-yl)acrylamide] | > 30 | > 30 | > 30 |  |  |  |
| CC(=O)c1ccc(-c2cc(Cl)c3c(c2)CC(CNC(=O)/C=C/c2cccnc2N)O3)s1 (stereo not drawn) [Compound 106, (E)-N-((5-(5-acetylthiophen-2-yl)-7-chloro-2,3-dihydrobenzofuran-2-yl)methyl)-3-(2-aminopyridin-3-yl)acrylamide] | 5 to 30 | 5 to 30 | 5 to 30 |  |  |  |
| CC(=O)c1ccc(-c2cc(Cl)c3c(c2)CC(CNC(=O)/C=C/c2cnccc2N)O3)s1 (stereo not drawn) [Compound 108, (E)-N-((5-(5-acetylthiophen-2-yl)-7-chloro-2,3-dihydrobenzofuran-2-yl)methyl)-3-(4-aminopyridin-3-yl)acrylamide] | 0.1 to 5 | 5 to 30 | 0.1 to 5 |  |  |  |
| CC(=O)c1ccc(-c2cc(Cl)c3c(c2)CC(CNC(=O)/C=C/c2ccccc2N)O3)s1 (stereo not drawn) [Compound 110, (E)-N-((5-(5-acetylthiophen-2-yl)-7-chloro-2,3-dihydrobenzofuran-2-yl)methyl)-3-(2-aminophenyl)acrylamide] | > 30 | > 30 | > 30 |  |  |  |
| CC(=O)c1ccc(-c2cc(Cl)c3c(c2)CC(CNC(=O)/C=C/c2ccc(C#N)cc2)O3)s1 (stereo not drawn) [Compound 112, (E)-N-((5-(5-acetylthiophen-2-yl)-7-chloro-2,3-dihydrobenzofuran-2-yl)methyl)-3-(4-cyanophenyl)acrylamide] | > 30 | > 30 | > 30 |  |  |  |
| CC(=O)c1ccc(-c2cc(Cl)c3c(c2)CC(CNC(=O)/C=C/c2ccc(N)cc2)O3)s1 (stereo not drawn) [Compound 114, (E)-N-((5-(5-acetylthiophen-2-yl)-7-chloro-2,3-dihydrobenzofuran-2-yl)methyl)-3-(4-aminophenyl)acrylamide] | > 30 | > 30 | > 30 |  |  |  |
| CC(=O)c1ccc(-c2cc(Cl)c3c(c2)CC(CNC(=O)/C=C/c2ccc(N)nc2C)O3)s1 (stereo not drawn) [Compound 118, (E)-N-((5-(5-acetylthiophen-2-yl)-7-chloro-2,3-dihydrobenzofuran-2-yl)methyl)-3-(6-amino-2-methylpyridin-3-yl)acrylamide] | 5 to 30 | 5 to 30 | 0.1 to 5 |  |  |  |
| CC(=O)c1ccc(-c2cc(Cl)c3c(c2)CC(CNC(=O)/C=C/C2C(Cl)=NC4=CC=CCN42)O3)s1 (stereo not drawn) [Compound 120, (E)-N-((5-(5-Acetylthiophen-2-yl)-7-chloro-2,3-dihydrobenzofuran-2-yl)methyl)-3-(2-chloro-3,5-dihydroimidazo[1,2-a]pyridin-3-yl)acrylamide] | 5 to 30 | 5 to 30 | 5 to 30 |  |  |  |
| CC(=O)c1ccc(-c2cc(Cl)c3c(c2)CC(CNC(=O)/C=C/c2cccnc2)O3)s1 (stereo not drawn) [Compound 122, (E)-N-((5-(5-acetylthiophen-2-yl)-7-chloro-2,3-dihydrobenzofuran-2-yl)methyl)-3-(pyridin-3-yl)acrylamide] |  |  |  | 0.1 to 5 | 0.1 to 5 | 0.1 to 5 |
| CC(=O)c1ccc(-c2cc(Cl)c3c(c2)CC(CN(C)C(=O)/C=C/c2cccnc2)O3)s1 (stereo not drawn) [Compound 125, (E)-N-((5-(5-acetylthiophen-2-yl)-7-chloro-2,3-dihydrobenzofuran-2-yl)methyl)-N-methyl-3-(pyridin-3-yl)acrylamide] | 5 to 30 | 5 to 30 | 5 to 30 |  |  |  |
| CCOC(=O)c1ccc(-c2cc(Cl)c3c(c2)CC(CNC(=O)/C=C/c2cccnc2)O3)cc1 (stereo not drawn) [Compound 128, (E)-ethyl 4-(7-chloro-2-((3-(pyridin-3-yl)acrylamido)methyl)-2,3-dihydrobenzofuran-5-yl)benzoate] | 0.1 to 5 | 0.1 to 5 | < 0.1 |  |  |  |
